Values of other authors in patent US20080182860A1, “Pyrimidine Compounds as Purine Receptor Antagonist” (VERNALIS (R&D) LTD., priority 2004, published 2008).

Columns and labels:
Parkinsonian patients = details: 150 mg/day slow release oral

serum theophylline levels (Parkinsonian patients; after one week, 15 Parkinsonian patients) [mg/L] | SMILES | anticataleptic effects of a subthreshold dose of L-DOPA plus benserazide (adenosine A2A receptor; in vivo) | catalepsy induced by haloperidol and reserpine (adenosine A2A receptor; in vivo) | cataleptic responses induced by intracerebroventricular CGS 21680 (adenosine A2A receptor; oral administration) | mean objective disability scores (Parkinsonian patients; up to 12 weeks)
 | CCCn1c(=O)c2c(nc(/C=C/c3ccc(OC)c(OC)c3)n2C)n(CCC)c1=O [KF 17837, (E)-8-(3,4-dimethoxystyryl)-1,3-dipropyl-7-methylxanthine] | potentiated | reduced | significantly ameliorated | 
4.44 | Cn1c(=O)c2[nH]cnc2n(C)c1=O [Theophylline, 1,3-dimethylxanthine] |  |  |  | significant improvements
